In patent publication US12564559B2, “Combinations of LSD1 inhibitors for use in the treatment of solid tumors” (Oryzon Genomics, S.A., priority 2016, dated 2026):
Where two headings read alike, the source gives them in different places.

Columns and labels:
NCI-H1048 = assay: Cell response to LSD1 inhibition, SCLC cell line cultured 4 days (Example 5); assay type: cell-based, human; conditions: NCI-H1048, SubType V; for EC50: Homo sapiens, 96 h
From the text: (§1) As a positive control for cytotoxicity the Hsp90 inhibitor 17-N-allylamino-17-demethoxygeldanamycin (17-AAG, a geldanamycin analogue) was used as positive control in serial dilution.

NCI-H2171 = assay: as above; assay type: cell-based, human; conditions: NCI-H2171, SubType V; for EC50: Homo sapiens, 96 h
From the text: as §1

SHP-77 = assay: as above; assay type: cell-based, human; conditions: SHP-77, SubType V(C); for EC50: Homo sapiens, SHP77, 96 h
From the text: as §1

NCI-H526 = assay: as above; assay type: cell-based, human; conditions: NCI-H526, SubType V; for EC50: Homo sapiens, 96 h
From the text: as §1

NCI-H2029 = assay: as above; assay type: cell-based, human; conditions: NCI-H2029, SubType (C); for EC50: Homo sapiens, 96 h
From the text: as §1

NCI-H1417 = assay: as above; assay type: cell-based, human; conditions: NCI-H1417, SubType C; for EC50: Homo sapiens, 96 h
From the text: as §1

NCI-H2227 = assay: as above; assay type: cell-based, human; conditions: NCI-H2227, SubType C; for EC50: Homo sapiens, 96 h
From the text: as §1

SBC-5 = assay: as above; assay type: cell-based, human; conditions: SBC-5, SubType (V); for EC50: Homo sapiens, 96 h
From the text: as §1

NCI-H2081 = assay: as above; assay type: cell-based, human; conditions: NCI-H2081, SubType C; for EC50: Homo sapiens, 96 h
From the text: as §1

NCI-H345 = assay: as above; assay type: cell-based, human; conditions: NCI-H345, SubType C; for EC50: Homo sapiens, 96 h
From the text: as §1

DMS-114 = assay: as above; assay type: cell-based, human; conditions: DMS-114, SubType V; for EC50: Homo sapiens, 96 h
From the text: as §1

NCI-H446 = assay: as above; assay type: cell-based, human; conditions: NCI-H446, SubType V; for EC50: Homo sapiens, 96 h
From the text: as §1

NCI-H82 = assay: as above; assay type: cell-based, human; conditions: NCI-H82, SubType V; for EC50: Homo sapiens, 96 h
From the text: as §1

NCI-H1876 [1] = assay: as above; assay type: cell-based, human; conditions: NCI-H1876, SubType C; for EC50: Homo sapiens, 96 h
From the text: as §1

NCI-H510A = assay: as above; assay type: cell-based, human; conditions: SubType C; for EC50: Homo sapiens, 96 h
From the text: as §1

NCI-H146 = assay: as above; assay type: cell-based, human; conditions: NCI-H146, SubType C; for EC50: Homo sapiens, 96 h
From the text: as §1

NCI-H187 = assay: as above; assay type: cell-based, human; conditions: NCI-H187, SubType C; for EC50: Homo sapiens, 96 h
From the text: as §1

NCI-H69 = assay: as above; assay type: cell-based, human; conditions: NCI-H69, SubType C; for EC50: Homo sapiens, 96 h
From the text: as §1

NCI-H748 = assay: as above; assay type: cell-based, human; conditions: NCI-H748, SubType C; for EC50: Homo sapiens, 96 h
From the text: as §1

NCI-H510 = assay: Growth Inhibition (ATPLite), SCLC cell line treated for 7 days (Example 1); assay type: cell-based, human; conditions: NCI-H510, “classic” neuroendocrine, FIG. 1B
Method: (§2) Once cells have been expanded and divided at their expected doubling times, screening was started. Cells were seeded in growth media in black 384-well tissue culture treated plates at 500 cells per well (except where noted in Analyzer). Cells were equilibrated in assay plates via centrifugation and placed in incubators attached to the Dosing Modules at 37° C. for twenty-four hours before treatment. […] These Tzero (T0) plates were read using ultra-sensitive luminescence on Envision Plate Readers.

NCI-H1876 [2] = assay: as above; assay type: cell-based, human; conditions: NCI-H1876, “classic” neuroendocrine, FIG. 1A
Method: as §2

H510A xenograft model = assay: NCI-H510A xenograft model, in vivo tumor growth inhibition (Example 9, FIG. 9); parameters: species or system athymic nude mice; conditions: 40 μg per kg five days on/two days off; after 21 days of dosing; compared to untreated controls
Method: 7-8-week old athymic nude mice animals were injected with 5×10^6 H510A cells resuspended in 100 μL of 1:1 mixture of Matrigel® matrix (Corning Inc., Tewksbury/MA, C. S. Hughes et al.^113) and PBS. Tumors were staged at 200-300 mm^3 animals and distributed into dosing groups. […] Tumor volume was measure biweekly using a digital caliber. The study was concluded when mean tumor volume within control group reached 2000 mm^3 or 28 days post-staging. Statistical analysis was performed using unpaired t-test.

NCI-H526 model = assay: NCI-H526 xenograft model, combination with etoposide and carboplatin (Example 4, FIG. 2B); assay type: in vivo, nu/nu mice; conditions: added at 20 upk 5/2 for three weeks to SOC (etoposide + carboplatin)
Method: 8-12-week old nu/nu mice were injected with 1×10^7 H526 cells or […] SHP-77 resuspended in 100 μL of 1:1 mixture of Matrigel® and PBS. Tumors were staged at 100-150 mm^3 animals and distributed into dosing groups. […] Carboplatin was administered i.p. at a dose of 100 mpk weekly for three weeks (qwkx3). […] Tumor volume was measure biweekly using a digital caliber. The endpoint of the experiment was a tumor volume of 1000 mm^3 or 90 days, whichever came first. Statistical analysis was performed using unpaired t-test and Gehan-Breslow-Wilcoxon test.

[3] = read-out: Sensitivity to LSD1 inh.

N[C@H]1CC[C@H](N[C@@H]2C[C@H]2c2ccccc2)CC1 [listing 1 of 2 here]
EC50 (NCI-H1048; read-out: EC50): > 50 nM | EC50 (NCI-H1048; [3]): ≥ 50 nM | Max. Response (%) (NCI-H1048): 27% | EC50 (NCI-H2171; read-out: EC50): > 50 nM | EC50 (NCI-H2171; [3]): ≥ 50 nM | Max. Response (%) (NCI-H2171): 0% | EC50 (SHP-77; read-out: EC50): > 50 nM | EC50 (SHP-77; [3]): ≥ 50 nM | Max. Response (%) (SHP-77): 0% | EC50 (NCI-H526; read-out: EC50): 0.632 nM | EC50 (NCI-H526; [3]): < 50 nM | Max. Response (%) (NCI-H526): 35% | EC50 (NCI-H2029; read-out: EC50): > 50 nM | EC50 (NCI-H2029; [3]): ≥ 50 nM | Max. Response (%) (NCI-H2029): 0% | EC50 (NCI-H1417; read-out: EC50): 0.302 nM | EC50 (NCI-H1417; [3]): < 50 nM | Max. Response (%) (NCI-H1417): 77% | EC50 (NCI-H2227; read-out: EC50): > 50 nM | EC50 (NCI-H2227; [3]): ≥ 50 nM | Max. Response (%) (NCI-H2227): 0% | EC50 (SBC-5; read-out: EC50): > 50 nM | EC50 (SBC-5; [3]): ≥ 50 nM | Max. Response (%) (SBC-5): 23% | EC50 (NCI-H2081; read-out: EC50): 0.92 nM | EC50 (NCI-H2081; [3]): < 50 nM | Max. Response (%) (NCI-H2081): 10% | EC50 (NCI-H345; read-out: EC50): 0.0275 nM | EC50 (NCI-H345; [3]): < 50 nM | Max. Response (%) (NCI-H345): 7% | Max. Response (%) (DMS-114): 0% | EC50 (DMS-114; read-out: EC50): > 50 nM | EC50 (DMS-114; [3]): ≥ 50 nM | EC50 (NCI-H446; read-out: EC50): > 50 nM | EC50 (NCI-H446; [3]): ≥ 50 nM | Max. Response (%) (NCI-H446): 7% | EC50 (NCI-H82; read-out: EC50): > 50 nM | EC50 (NCI-H82; [3]): ≥ 50 nM | Max. Response (%) (NCI-H82): 0% | EC50 (NCI-H1876 [1]; read-out: EC50): 0.0432 nM | EC50 (NCI-H1876 [1]; [3]): < 50 nM | Max. Response (%) (NCI-H1876 [1]): 145% | EC50 (NCI-H510A; read-out: EC50): 0.315 nM | EC50 (NCI-H510A; [3]): < 50 nM | Max. Response (%) (NCI-H510A): 68% | EC50 (NCI-H146; read-out: EC50): 0.1 nM | EC50 (NCI-H146; [3]): < 50 nM | Max. Response (%) (NCI-H146): 48% | EC50 (NCI-H187; read-out: EC50): 0.136 nM | EC50 (NCI-H187; [3]): < 50 nM | Max. Response (%) (NCI-H187): 61% | EC50 (NCI-H69; read-out: EC50): 0.585 nM | EC50 (NCI-H69; [3]): < 50 nM | Max. Response (%) (NCI-H69): 44% | EC50 (NCI-H748; read-out: EC50): 0.3 nM | EC50 (NCI-H748; [3]): < 50 nM | Max. Response (%) (NCI-H748): 13%

N[C@H]1CC[C@H](N[C@@H]2C[C@H]2c2ccccc2)CC1 [listing 2 of 2 here]
sensitivity of cell line to the compound (NCI-H510): high level of sensitivity | sensitivity of cell line to the compound (NCI-H1876 [2]): high level of sensitivity | tumor growth inhibition (H510A xenograft model): 34% | duration of tumor regression (NCI-H526 model): improved the duration of tumor regression | delay of tumor regrowth (NCI-H526 model; after the suspension of dosing): 30 days
